# Patent US20240342199A1, “COMBINATION THERAPIES TARGETING MITOCHONDRIA FOR CANCER THERAPY” (The Wistar Institute of Anatomy and Biology, priority 2014, published 2024)
# What was measured:
# [1] = test system: LN229 cells; test: High-throughput screening: cell viability (resazurin), compounds with DMSO or Gamitrinib; format: cell-based, Human; conditions: for inhibition at 0.000128 µM / inhibition at 0.00064 µM / inhibition at 0.0032 µM / inhibition at […] / inhibition at 0.08 µM / inhibition at 0.4 µM / inhibition at 2 µM / inhibition at 10 µM: Homo sapiens, LN-229, read-out: Percent inhibition; for inhibition at 0.000128 µM: compound 0.000128 uM + DMSO (control); for inhibition at 0.00064 µM: compound 0.00064 uM + DMSO (control); for inhibition at 0.0032 µM: compound 0.0032 uM + DMSO (control); for inhibition at […]: compound 0.016 uM + DMSO (control); for inhibition at 0.08 µM: compound 0.08 uM + DMSO (control); for inhibition at 0.4 µM: compound 0.4 uM + DMSO (control); for inhibition at 2 µM: compound 2 uM + DMSO (control); for inhibition at 10 µM: compound 10 uM + DMSO (control)
# Experimental: High-throughput screening and synergy experiments. Compounds for the molecular targeted cancer therapeutics were either purchased from SelleckChem or acquired under Material Transfer Agreement (MTA) with the Wistar Institute MTA. Compounds were suspended in DMSO. The purity and identity of the compounds was confirmed by LC/MS for a fraction of the compounds. Source plates with a 10 point dilution series (5-fold dilutions, ranging from 10-0.0001 μmol/L) were prepared for screening. […] Cell viability was determined by the addition of resazurin to a final concentration of 50 μM and incubation for 8 h. Fluorescence intensity (excitation, 560 nm, emission, 590 nm) was determined on an Envision Xcite Multilabel Reader (Perkin-Elmer), and the fractional growth inhibition was determined by normalizing assay wells to the aggregated average responses of positive control (10 μM doxorubicin) and negative control (0.2% DMSO) treatments (n=12).
# [2] = test system: Akt phosphorylation; test: Akt phosphorylation in tumor cell lines by Western blotting; format: cell-based, Human; conditions: PC3 cells, AZD6482 (10 μM), (0.4-2 μM) or BKM120 (0.4-2 μM), 48 h
# [3] = test system: LN229 or PC3 cells; test: Analysis of bioenergetics (ATP, glucose, lactate, oxygen consumption); format: cell-based, Human; conditions: PX-866 (10 μM), AZD6482 (10 μM) or GDC0941 (2 μM) for 48 h
# [4] = test system: Ser473-phosphorylated Akt (pAkt); test: Ser473-phosphorylated Akt in patient-derived organotypic cultures; format: cell-based, Human; conditions: tumor organoids, 48 h
# Experimental: Organotypic cultures. Short-term organotypic cultures from the different patient samples were established as described previously. Briefly, precise thick tissue slices (300 μm) were obtained from each case by vibratome serial cutting (VT1200, Leica Microsystems, Milan, Italy), and cultured in six-well plates on organotypic inserts (Millicell PICM ORG, Merck Millipore) for up to 48 h in 1 ml of Ham-F12 complete medium supplemented with vehicle (DMSO, 2.5 μl), pan-PI3K inhibitor LY294002 (50 or 100 μM) or PX-886 (2.5, 5 or 10 μM), or mitochondrial-targeted small molecule Heat Shock Protein-90 (Hsp90) inhibitor, 10 Gamitrinib (GA mitochondrial matrix inhibitor, 10 or 25 μM), or the combination of PX-886 plus Gamitrinib (each agent used at 10 μM). At the end of the experiment, one tissue slice per condition was formalin-fixed and paraffin-embedded (FFPE), and processed for morphological and immunohistochemical analysis. An additional tissue slice collected at the end of the experiment was embedded in optimal cutting temperature, and snap-frozen for molecular or immunofluorescence studies.
# [5] = test system: Akt2 (Ser474) in cytosol and mitochondria; test: Phosphorylated Akt in cytosol and mitochondrial extracts by Western blotting; format: cell-based, Human; conditions: pretreatment with 17-AAG; cytosol and mitochondria
# Experimental: Subcellular and submitochondrial fractionation. Mitochondrial fractions were isolated using an ApoAlertTM cell fractionation kit (CLONTECH), as described. Submitochondrial fractions comprising outer membrane (OM), inner membrane (IM), inter-membrane space (IMS) and matrix were prepared as described.
# [6] = test system: class I PI3K isoforms; conditions: cited from earlier work
# [7] = compound 0.000128 uM + Gamitrinib (1 μM)
# [8] = compound 0.00064 uM + Gamitrinib (1 μM)
# [9] = compound 0.0032 uM + Gamitrinib (1 μM)
# [10] = compound 0.08 uM + Gamitrinib (1 μM)
# [11] = compound 0.4 uM + Gamitrinib (1 μM)
# [12] = compound 2 uM + Gamitrinib (1 μM)
# [13] = compound 10 uM + Gamitrinib (1 μM)
# [14] = compound 2.56E−05 uM + DMSO (control)
# [15] = compound 2.56E−05 uM + Gamitrinib (1 μM)
# [16] = compound 5.12E−06 uM + DMSO (control)
# [17] = compound 5.12E−06 uM + Gamitrinib (1 μM)
# [18] = compound […] + Gamitrinib (1 μM)
SMILES,inhibition at 0.000128 µM [1] [%],inhibition at 0.00064 µM [1] [%],inhibition at 0.0032 µM [1] [%],inhibition at […] [1] [%],inhibition at 0.08 µM [1] [%],inhibition at 0.4 µM [1] [%],inhibition at 2 µM [1] [%],inhibition at 10 µM [1] [%],"Percent inhibition [1, 7] [%]","Percent inhibition [1, 8] [%]","Percent inhibition [1, 9] [%]","Percent inhibition [1, 10] [%]","Percent inhibition [1, 11] [%]","Percent inhibition [1, 12] [%]","Percent inhibition [1, 13] [%]","Percent inhibition [1, 14] [%]","Percent inhibition [1, 15] [%]","Percent inhibition [1, 16] [%]","Percent inhibition [1, 17] [%]","Percent inhibition [1, 18] [%]",also measured
Cn1c(=O)n(-c2ccc(C(C)(C)C#N)cc2)c2c3cc(-c4cnc5ccccc5c4)ccc3ncc21 [BEZ235],-21.4,23.8,60.7,74.6,62.6,65.1,67.6,71.6,122.82,127.29,134.66,133.41,140.20,137.11,141.44,−9.35,121.84,−7.25,119.42,145.76,
COc1ncc(-c2ccc3nccc(-c4ccnnc4)c3c2)cc1NS(=O)(=O)c1ccc(F)cc1F [GSK458],8.89,11.3,38.1,52.4,67.5,58.1,63.1,53.6,135.48,139.64,139.92,133.47,138.84,142.85,156.27,1.66,128.82,17.03,132.69,136.49,
Cc1cc([C@@H](C)Nc2ccccc2C(=O)O)c2nc(N3CCOCC3)cc(=O)n2c1 [AZD6482],11.8,-10.5,-4.1,10.8,21.7,-7.43,5.91,43.4,123.03,128.16,123.40,111.71,114.08,133.90,141.10,−2.03,119.70,3.23,129.84,118.13,Akt phosphorylation [2]: Akt phosphorylation was observed; ATP production [3]: reduced ATP production; glucose utilization [3]: less glucose utilization; lactate production [3]: less
"C=CCNC1=C2C[C@@H](C)C[C@H](OC)[C@H](O)[C@@H](C)/C=C(\C)[C@H](OC(N)=O)[C@@H](OC)/C=C\C=C(/C)C(=O)NC(=CC1=O)C2=O [17-AAG, 17-(allylamino)-17-demethoxygeldanamycin]",,,,,,,,,,,,,,,,,,,,,phosphorylation of Akt on Ser473 [4]: had no effect; accumulation of phosphorylated Akt in response to PX-866 [5]: abolished the accumulation of phosphorylated Akt
Nc1cc(C(F)(F)F)c(-c2cc(N3CCOCC3)nc(N3CCOCC3)n2)cn1 [BKM120],4.38,16.2,3.42,8.78,17.7,50.4,54.9,61.7,132.78,130.27,140.77,153.91,150.75,151.13,152.02,19.80,136.65,14.64,130.32,138.62,Akt phosphorylation [2]: Akt phosphorylation was observed
CS(=O)(=O)N1CCN(Cc2cc3nc(-c4cccc5[nH]ncc45)nc(N4CCOCC4)c3s2)CC1 [GDC0941],-14.7,7.03,-17.3,-0.14,21.2,29.8,58.9,64.8,124.43,133.55,19.20,121.46,134.46,140.39,156.27,−27.15,104.45,0.41,125.94,126.85,Akt phosphorylation [2]: Akt phosphorylation was observed; ATP production [3]: reduced ATP production; glucose utilization [3]: less glucose utilization; lactate production [3]: less
FC(F)c1nc2ccccc2n1-c1nc(N2CCOCC2)nc(N2CCOCC2)n1 [ZSTK474],,,,,,,,,,,,,,,,,,,,,"PI3K activity ([6]; 1 μM): 4.7 % of the control level; IC50 ([6]; class I PI3K isoforms, mostly PI3Kδ): 37 nM"
